Earlier results, collected in patent publication US12290596B2, “Compositions and methods for the treatment of opioid overdose” (priority 2021, dated 2025).

Settings: intranasal formulation with […] Intravail; cited from earlier work

Compound: CNS(=O)(=O)Cc1ccc2[nH]cc(CCN(C)C)c2c1 [sumatriptan]
- Increase of maximum plasma concentration in comparison to Imitrex nasal spray: almost four-fold
- Increase of total exposure (AUC): 32%
- Tmax: 8 to 10 min
